# Results reported in patent publication US20050261290A1, “Novel compounds of proline and morpholine derivatives” (priority 2004, published 2005).
# Where two headings read alike, the source gives them in different places.
# How the values were obtained:
# [1] = system: bone nodule formation; conditions: cited from earlier work
# [2] = system: normal subjects; conditions: ingestion; cited from earlier work
# [3] = system: healthy human volunteers; conditions: healthy human volunteers treated with carbenoxolone; cited from earlier work
# [4] = target: human 11b-hsd-1 (Homo sapiens, UniProt P28845); assay: Inhibition constant Ki of human 11b-hsd-1 (3H-cortisone to 3H-cortisol conversion, HPLC); type: biochemical; conditions: for Ki: apparent Ki, read-out: Ki app
# human 11b-hsd-1, sequence (P28845 whole entry): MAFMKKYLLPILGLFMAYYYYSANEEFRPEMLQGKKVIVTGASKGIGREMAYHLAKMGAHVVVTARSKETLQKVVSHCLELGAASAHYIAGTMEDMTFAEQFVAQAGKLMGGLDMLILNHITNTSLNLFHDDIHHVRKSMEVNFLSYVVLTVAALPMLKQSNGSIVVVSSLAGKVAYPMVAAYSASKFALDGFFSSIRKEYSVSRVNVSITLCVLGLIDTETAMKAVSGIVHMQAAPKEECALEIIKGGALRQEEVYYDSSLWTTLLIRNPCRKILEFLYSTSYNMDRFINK
# Experimental: In each well, varying amounts of compounds are incubated with a fixed amount of 11b-hsd-1 (4 nM) and NADPH (500 μM) for 30 to 40 min at room temperature in the assay buffer. The enzyme concentration was determined by titration using reversible tight-binding inhibitors. […] The area of 3H-cortisol is calculated and plotted versus time to determine a linear velocity. […] Where vi, and vo are the rates of cortisol formation in the presence and in the absence of inhibitor, respectively, I is the inhibitor concentration and E is the 11 b-hsd-1 concentration in the assay buffer. […] NADPH, Glucose-6-Phosphate (G6P), and Glucose-6-Phosphate dehydrogenase was purchased from Sigma.
Structure (SMILES),inhibition at 0.1 µM ([4]; 0.1 μM compound) [%],Ki [4] [nM],inhibition at 0.1 µM ([4]; compound at 0.1 μM) [%],further results
CC1(C)[C@@H](OC(=O)CCC(=O)O)CC[C@]2(C)[C@H]3C(=O)C=C4[C@@H]5C[C@@](C)(C(=O)O)CC[C@]5(C)CC[C@@]4(C)[C@]3(C)CC[C@@H]12 [carbenoxolone],–,–,–,negative effect of glucocorticoid on bone nodule formation [1]: blocked; reduction of the intraocular pressure [2]: 20%; hepatic insulin sensitivity [3]: improved
O=C(NC1C2CC3CC(C2)CC1C3)[C@@H]1C[C@H](Oc2cccc(C(F)(F)F)c2)CN1 (stereo partly shown) [Example 357],100,2.1,–,–
"CN1CCC(CN2C[C@H](O)C[C@@H]2C(=O)NC2C3CC4CC(C3)CC2C4)CC1 (stereo partly drawn) [Example 47, (4R)-N-2-adamantyl-4-hydroxy-1-[(1-methylpiperidin-4-yl)methyl]-D prolinamide]",–,–,38,–
Cc1ccccc1CNC(=O)[C@H]1CCCN1CC(C)C [Example 256],100,7,–,–
CC(C)CN1CC[C@H](O)[C@H]1C(=O)NC12CC3CC(CC(C3)C1)C2 [Example 211],80.2,32,–,–
CCC1CCCCN1C(=O)[C@H]1CCCN1Cc1ccc(Cl)cc1 (stereo partly shown) [Example 197],73.2,50,–,–
O=C(NC1C2CC3CC(C2)CC1C3)[C@H]1CCCN1Cc1ccn[nH]1 (stereo partly shown) [Example 126],–,–,71,–
O=C(NCc1ccc(F)cc1)[C@H]1COCCN1Cc1ccccc1 [Example 274],78.4,2.6,–,–
C[C@@H](NC(=O)[C@H]1COCCN1Cc1ccccc1)c1ccc(Cl)cc1 [Example 314],94.8,8.96,–,–
O=C(NC12CC3CC(CC(C3)C1)C2)C1COCCN1CC1CCCCC1 (stereo not shown) [Example 181],–,–,100,Ki ([4]; human 11b-hsd-1): 1.8 nM
CC(C)CN1CCC[C@@H]1C(=O)NCc1c(F)cccc1F [Example 239],97.6,5.62,–,–
CCCN1CCC[C@@H]1C(=O)NC1CCCCC1 [Example 85],–,–,94,Ki ([4]; human 11b-hsd-1): 9 nM
CCc1ccccc1O[C@@H]1CN[C@H](C(=O)NC2C3CC4CC(C3)CC2C4)C1 (stereo partly shown) [Example 350],100,2.2,–,–
Cc1ccccc1O[C@@H]1CN[C@H](C(=O)NC2C3CC4CC(C3)CC2C4)C1 (stereo partly shown) [Example 320],100,5.5,–,–
"O=C(NC12CC3CC(CC(C3)C1)C2)[C@H]1CCCN1CC1CCCCC1 [Example 9, N-1-adamantyl-1-(cyclohexylmethyl)-D-prolinamide]",–,–,100,Ki ([4]; human 11b-hsd-1): 1.7 nM
CCN1CCC[C@@H]1C(=O)NC12CC3CC(CC(C3)C1)C2 [Example 23],–,–,94,Ki ([4]; human 11b-hsd-1): 2.6 nM
"CC(=O)N1CCC[C@@H]1C(=O)NC1C2CC3CC(C2)CC1C3 (stereo partly drawn) [Example 18, N-2-adamantyl-1-acetyl-D-prolinamide]",–,–,85,Ki ([4]; human 11b-hsd-1): 16.4 nM
O=C(NCc1ccc(Cl)cc1)[C@H]1CCCN1CC1CCCC1 [Example 227],80.3,36,–,–
CS(=O)(=O)N1CCC[C@H]1CN1CCC[C@@H]1C(=O)NC1C2CC3CC(C2)CC1C3 (stereo partly shown) [Example 135],–,–,100,–
COc1ccccc1CNC(=O)[C@H]1CCCN1Cc1ccc(C#N)cc1 [Example 251],83.5,47,–,–
CCN1CCCC[C@@H]1C(=O)NC12CC3CC(CC(C3)C1)C2 [Example 12],–,–,89,Ki ([4]; human 11b-hsd-1): 14 nM
O=C(NCc1c(F)cccc1F)[C@H]1CCCN1Cc1ccc(Cl)cc1 [Example 244],87.1,18,–,–

Structure (SMILES),inhibition at 0.1 µM ([4]; 0.1 μM compound) [%],Ki [4] [nM],inhibition at 0.1 µM ([4]; compound at 0.1 μM) [%],further results
CC(C)CN1CSC[C@@H]1C(=O)NC12CC3CC(CC(C3)C1)C2 [Example 208],100,1,–,–
CCN1CCC[C@H](C(=O)NC2C3CC4CC(C3)CC2C4)C1 (stereo partly shown) [Example 124],–,–,100,–
"CN(C)CCN1CCOC[C@@H]1C(=O)NC1C2CC3CC(C2)CC1C3 (stereo partly drawn) [Example 44, (3R)-N-2-adamantyl-4-[2-(dimethylamino)ethyl]morpholine-3-carboxamide]",–,–,59.4,–
O=C(NC1C2CC3CC(C2)CC1C3)[C@@H]1NCC[C@H]1c1ccccc1 (stereo partly shown) [Example 340],100,5.2,–,–
CCC(C)N1CCC[C@@H]1C(=O)NC1CCCCC1 (stereo partly shown) [Example 105],–,–,82,Ki ([4]; human 11b-hsd-1): 15 nM
O=C(NCC1(O)CCCCCC1)[C@H]1CCCN1CC1CCCC1 [Example 68],–,–,93.5,Ki ([4]; human 11b-hsd-1): 2 nM
O=C(NCc1ccc(F)cc1)[C@H]1CCCN1Cc1ccccc1Cl [Example 232],71.5,47,–,–
"O=C(NC1C2CC3CC(C2)CC1C3)[C@H]1CCCNC1 (stereo partly shown) [Example 121, Piperidine-3-carboxylic acid adamantan-2-ylamide]",–,–,17,–
O=C(NC1C2CC3CC(C2)CC1C3)[C@@H]1C[C@H](Oc2ccc(F)cc2)CN1 (stereo partly shown) [Example 321],100,1,–,–
O=C(NCc1ccccc1Cl)[C@H]1CCCN1CCc1ccccc1 [Example 271],83.8,26,–,–
Cc1cc(Cl)ccc1O[C@@H]1CN[C@H](C(=O)NC2C3CC4CC(C3)CC2C4)C1 (stereo partly shown) [Example 349],100,1.8,–,–
"NC1C[C@H](C(=O)NC2C3CC4CC(C3)CC2C4)N(CC2CCCC2)C1 (stereo partly drawn) [Example 45, N-2-adamantyl-4-amino-1-(cyclopentylmethyl)-D-prolinamide]",–,–,81,–
O=C(NC1CCCCC1)[C@H]1CCCN1Cc1ccccc1 [Example 282],100,2.34,–,–
CC(C)CN1CCC[C@@H]1C(=O)NCc1ccccc1 [Example 4],–,–,94,Ki ([4]; human 11b-hsd-1): 3.6 nM
"O=C(NC1C2CC3CC(C2)CC1C3)[C@H]1C[C@@H](O)CN1CC1CCCC1 (stereo partly drawn) [Example 28, (4R)-N-2-adamantyl-1-cyclopentylmethyl-4-hydroxy-D-prolinamide]",–,–,100,Ki ([4]; human 11b-hsd-1): 1 nM
C[C@@H](CN1CCC[C@@H]1C(=O)NC1C2CC3CC(C2)CC1C3)NC(=O)OC(C)(C)C (stereo partly shown) [Example 154],–,–,96,–
Cc1ccc(O[C@@H]2CN[C@H](C(=O)NC3C4CC5CC(C4)CC3C5)C2)cn1 (stereo partly shown) [Example 343],98.6,6.3,–,–
O=C(NC1C2CC3CC(C2)CC1C3)[C@H]1COCCN1Cc1ccccc1 (stereo partly shown) [Example 2],–,–,100,Ki ([4]; human 11b-hsd-1): 2.4 nM
O=C(NC1C2CC3CC(C2)CC1C3)[C@H]1COCCN1Cc1ccccn1 (stereo partly shown) [Example 67],–,–,100,Ki ([4]; human 11b-hsd-1): 1 nM
CCCCN1CCC[C@@H]1C(=O)NC1CCCCC1 [Example 100],–,–,100,Ki ([4]; human 11b-hsd-1): 4 nM
O=C(NC1Cc2ccccc2C1)[C@H]1CCCN1CC1CCCC1 [Example 294],100,8.52,–,–
CC(C)N1CCC(CN2CCOC[C@@H]2C(=O)NC2C3CC4CC(C3)CC2C4)CC1 (stereo partly shown) [Example 73],–,–,83,–

Structure (SMILES),inhibition at 0.1 µM ([4]; 0.1 μM compound) [%],Ki [4] [nM],inhibition at 0.1 µM ([4]; compound at 0.1 μM) [%],further results
O=C(NC1C2CC3CC(C2)CC1C3)[C@H]1COCCN1CC1CC1 (stereo partly shown) [Example 279],100,3,–,–
CC(C)CN1CCOC[C@@H]1C(=O)NC1C2CC3CC(C2)CC1C3 (stereo partly shown) [Example 64],–,–,100,Ki ([4]; human 11b-hsd-1): 1.3 nM
C[C@@H](NC(=O)[C@H]1COCCN1CC1CCCC1)c1ccccc1 [Example 309],86.1,32,–,–
CCCN1CCC[C@@H]1C(=O)N[C@H]1C[C@@H]2CC[C@H]1C2 [Example 90],–,–,100,–
CC(C)CN1CCC[C@@H]1C(=O)NCC1(O)CCCC1 [Example 330],83.5,30,–,–
CC(C)CN1[C@H]2CC[C@H](C2)[C@H]1C(=O)NC12CC3CC(CC(C3)C1)C2 (relative stereo) [Example 209],100,1.9,–,–
CN(Cc1ccc(F)cc1)C(=O)[C@H]1COCCN1Cc1ccc(C#N)cc1 [Example 36],–,–,90,Ki ([4]; human 11b-hsd-1): 21.4 nM
"O=C(NCc1ccccc1)[C@H]1CCCN1CC1CCCCC1 [Example 3, N-benzyl-1-(cyclohexylmethyl)-D-prolinamide]",–,–,92,Ki ([4]; human 11b-hsd-1): 15 nM
O=C(NC1C2CC3CC(C2)CC1C3)[C@H]1COCCN1CCN1CCCC1 (stereo partly shown) [Example 70],–,–,74,–
O=C(N[C@@H]1CCc2ccccc21)[C@H]1CCCN1Cc1ccccc1 [Example 283],100,5.6,–,–
CCC1CCCCN1C(=O)[C@H]1CSCN1CC(C)C (stereo partly shown) [Example 200],91.6,36,–,–
CN(Cc1ccccc1)C(=O)[C@H]1COCCN1Cc1ccccc1 [Example 272],71.7,1,–,–
COc1ccccc1CNC(=O)[C@H]1CCCN1CC(C)C [Example 255],100,8.6,–,–
CC12C3C4C1C1C2C3C41NC(=O)[C@H]1CCCN1 (stereo partly shown) [Example 143],–,–,10,–
N#Cc1ccccc1CN1CCC[C@@H]1C(=O)N[C@@H]1CCc2ccccc21 [Example 284],93.1,11.5,–,–
CC(C)(C)OC(=O)N1CCC[C@H]1CN1CCC[C@@H]1C(=O)NC1C2CC3CC(C2)CC1C3 (stereo partly shown) [Example 112],–,–,81,–
Cc1ncccc1CNC(=O)[C@H]1CCCN1CC(C)C [Example 40],–,–,100,Ki ([4]; human 11b-hsd-1): 19 nM
O=C(NC1C2CC3CC(C2)CC1C3)[C@H]1CCCN1CCN1CCOCC1 (stereo partly shown) [Example 128],–,–,100,–
CC(C)CN1CCC[C@@H]1C(=O)NC1CCCCC1 [Example 86],–,–,100,Ki ([4]; human 11b-hsd-1): < 1 nM
CCOc1ccccc1CNC(=O)[C@H]1CCCN1CC1CCCC1 [Example 54],–,–,94,Ki ([4]; human 11b-hsd-1): 13.2 nM
O=C(NCc1ccccc1F)[C@H]1CCCN1CCC(F)(F)F [Example 229],73.7,48,–,–
C[C@H](O)CN1CCC[C@@H]1C(=O)NC1C2CC3CC(C2)CC1C3 (stereo partly shown) [Example 117],–,–,100,–
